Reference: article PMC12227560, “Total synthesis of a sorrentanone ester library and evaluation of its antimicrobial potential” (Scientific Reports, 2025)
Converted amounts (≈) assume the structure as drawn. Read-outs that look alike come from different tables or passages of the source.

How the values were obtained:
S. aureus MRSA = experiment: Antimicrobial broth micro-dilution assay (MIC); type: cell-based; conditions: Staphylococcus aureus, read-out: Minimum inhibitory concentration (MIC)
From the text: (§1) 3. Bioactivity and Toxicity Assays
(§2) Antimicrobial assay: According to the standard broth micro-dilution assays, following the Standards of European Committee on Antimicrobial Susceptibility Testing (v 7.3.1: Method for the determination of broth dilution minimum inhibitory concentrations of antifungal agents for yeasts) for Candida spp., and according to the standard broth micro-dilution assays, recommended by the National Committee for Clinical Laboratory Standards (M07-A8) for bacteria MIC values of compounds were determinate. Compounds were dissolved in DMSO at a concentration of 50 mg/mL, and the highest tested concentration was 250 µg/mL. The inoculums were 1x10^5 colony forming units (CFU/mL), for Candida species, and bacteria species, 5x10^5 colony forming units (CFU/mL). The MIC value was recorded as the lowest concentration that inhibited the growth after 24 h at 37 °C. Additionally, 5 µL from each well of 96 well plates was transferred to Luria Agar (LA) plates for bacteria and Sabouraud agar (SAB) plates for Candida spp. and incubated for an additional 24 h at 37 °C, to determine MBC (Minimum bactericidal/fungicidal concentration) values. In Table 1. Are labeled compounds showing a difference in MBC and previously determined MIC values. […]

E. coli NCTC9001 = experiment: Antimicrobial broth micro-dilution assay (MIC); type: cell-based; conditions: Escherichia coli, read-out: Minimum inhibitory concentration (MIC)
From the text: as §1, §2

P. aeruginosa ATCC27853 = experiment: Antimicrobial broth micro-dilution assay (MIC); type: cell-based; conditions: Pseudomonas aeruginosa, read-out: Minimum inhibitory concentration (MIC)
From the text: as §1, §2

C. albicans ATCC10231 = experiment: Antimicrobial broth micro-dilution assay (MIC); type: cell-based; conditions: Candida albicans, read-out: Minimum inhibitory concentration (MIC)
From the text: as §1, §2

S. aureus ATCC25923 = experiment: Antimicrobial broth micro-dilution assay (MIC); type: cell-based; conditions: Staphylococcus aureus, read-out: Minimum inhibitory concentration (MIC)
From the text: as §1, §2

B. subtilis ATCC6633 = experiment: Antimicrobial broth micro-dilution assay (MIC); type: cell-based; conditions: Bacillus subtilis, read-out: Minimum inhibitory concentration (MIC)
From the text: as §1, §2

[1] = tested on: human lung fibroblast cell line (MRC-5); experiment: Cytotoxicity evaluation by MTT assay; type: cell-based
From the text: as §1
Antimicrobial assay: According to the standard broth micro-dilution assays, following the Standards of European Committee on Antimicrobial Susceptibility Testing (v 7.3.1: Method for the determination of broth dilution minimum inhibitory concentrations of antifungal agents for yeasts) for Candida spp., and according to the standard broth micro-dilution assays, recommended by the National Committee for Clinical Laboratory Standards (M07-A8) for bacteria MIC values of compounds were determinate. Compounds were dissolved in DMSO at a concentration of 50 mg/mL, and the highest tested concentration was 250 µg/mL. The inoculums were 1x10^5 colony forming units (CFU/mL), for Candida species, and bacteria species, 5x10^5 colony forming units (CFU/mL). The MIC value was recorded as the lowest concentration that inhibited the growth after 24 h at 37 °C. Additionally, 5 µL from each well of 96 well plates was transferred to Luria Agar (LA) plates for bacteria and Sabouraud agar (SAB) plates for Candida spp. and incubated for an additional 24 h at 37 °C, to determine MBC (Minimum bactericidal/fungicidal concentration) values. In Table 1. Are labeled compounds showing a difference in MBC and previously determined MIC values.
Cytotoxicity evaluation: Antiproliferative activity was tested by MTT assay (3-(4,5-dimethylthiazol-2-yl)-2,5-diphenyltetrazoliumbromide) on a human lung fibroblast cell line (MRC-5; ATCC collection). Pre-grown (24 h) cell monolayers (1x10^4 cells per well) in RPMI 1640 medium supplemented with 100 μg/mL streptomycin, 100 U/mL penicillin, and 10% (v/v) FBS (all from Sigma, Munich, Germany) containing the tested compounds at concentrations ranging from 5 to 20 μg/mL were incubated in a humidified atmosphere of 95% air and 5% CO2 at 37 °C for 48 h. The cell viability (extent of MTT reduction) was measured spectrophotometrically at 540 nm using the Epoch 2000 multiplate reader, and the cell survival was expressed as a percentage of the control (untreated cells). Cytotoxicity was expressed as the concentration of the compound inhibiting cell growth by 50% (IC 50). […]

[2] = tested on: two S. aureus strains and B. subtilis ATCC6633; experiment: Antimicrobial assay, Gram-positive bacteria; type: cell-based; conditions: from MIC values
From the text: as §1, §2

Caenorhabditis elegans = experiment: In vivo toxicity C. elegans survival assay; conditions: C. elegans model
Procedure: 3. Bioactivity and Toxicity Assays […]
Compounds were dissolved in DMSO at a concentration of 50 mg/mL, and the highest tested concentration was 250 µg/mL. […]
In vivo toxicity C. elegans assay: The C. elegans survival assay was carried out as described previously with some modifications. 8 In brief, synchronized worms (L4 stage) were suspended in a medium containing 95% M9 buffer (3.0 g of KH2PO4, 6.0 g of Na2HPO4, 5.0 g of NaCl, and 1 mL of 1 M MgSO4 × 7H2O in 1 L of water), 5% LB (Luria-Bertani) broth (Oxoid, Basingstoke, UK), and 10 μg of cholesterol (Sigma -Aldrich, Munich, Germany) per mL. The experiment was carried out in 96 -well flat -bottomed microtiter plates (Sarstedt, Nümbrecht, Germany) in the final volume of 100 μL per wel l. 25 μL of this suspension of nematodes (25 –35 nematodes) were transferred to the wells of a 96 -well microtiter plate, where 50 μL of the medium was previously added. Next, 25 μL of a solvent control (DMSO) or 25 μL of a concentrated solution was added to the test wells. The final concentrations of the compounds were 50, 25, 10, and 5 µg/mL. Subsequently, the plates were incubated at 25 °C for 2 days. The fraction of dead worms was determined after 48 h by counting the number of dead worms and the total number of worms in each well, using a stereomicroscope (SMZ143-N2GG, Motic, Germany).
As a negative control experiment, nematodes were exposed to the medium containing 1% […]
Ergosterol biosynthesis assay: Ergosterol levels were measured according to the published procedure with some minor modifications. 10 Briefly, a sing le C. albicans colony from an overnight Sabouraud dextrose agar plate was used to inoculate 50 ml of Sabouraud dextrose broth containing 0.5 MIC concentrated compounds. Incubation was performed for 18 h at 37 °C on the rotary shaker at 180 rpm. Cells were harvested by centrifugation at 3000 rpm for 5 min and washed once with sterile distilled water. The net wet weight of the cell pellet was determined. Three milliliters of 25% alcoholic potassium hydroxide solution (25 g of KOH and 35 ml of sterile distill ed water, brought to 100 ml with 100% ethanol), was added to each pellet and vortex mixed for 1 min and incubated in an 85 °C water bath for 1 h. Tubes were cooled to room temperature and extraction of sterols was done with the addition of a mixture of 1 ml of sterile distilled water and 3 ml of n-heptane followed by vigorous vortex mixing for 3 min. The heptane layer was used for spectrophotometrically measuring ergosterol concentrations by scanning absorbance between 240 nm and 300 nm using Ultrospec 3300pro 573 (Amer sham Biosciences, Amersham, UK).

[3] = S. aureus MRSA, 24 h at 37 °C, highest tested concentration 250 µg/mL
[4] = E. coli NCTC9001, 24 h at 37 °C, highest tested concentration 250 µg/mL
[5] = P. aeruginosa ATCC27853, 24 h at 37 °C, highest tested concentration 250 µg/mL
[6] = C. albicans ATCC10231, 24 h at 37 °C, highest tested concentration 250 µg/mL
[7] = S. aureus ATCC25923, 24 h at 37 °C, highest tested concentration 250 µg/mL
[8] = B. subtilis ATCC6633, 24 h at 37 °C, highest tested concentration 250 µg/mL

SMILES | MIC (S. aureus MRSA; [3]) | MIC (E. coli NCTC9001; [4]) | MIC (P. aeruginosa ATCC27853; [5]) | MIC (C. albicans ATCC10231; [6]) | MIC (S. aureus ATCC25923; [7]) | MIC (B. subtilis ATCC6633; [8]) | selectivity index (SI) ([1]; cytotoxicity versus antibiotic activity, calculation not described) | MIC (S. aureus MRSA; MRSA, 24 h) | MIC (E. coli NCTC9001; NCTC9001, 24 h) | MIC (P. aeruginosa ATCC27853; ATCC27853, 24 h) | MIC (C. albicans ATCC10231; ATCC10231, 24 h) | MIC (S. aureus ATCC25923; ATCC25923, 24 h) | MIC (B. subtilis ATCC6633; ATCC6633, 24 h) | improvement of antibacterial activity compared to sorrentanone (7) [2] | in vivo toxicity (in words) (Caenorhabditis elegans) | cell survival ([1]; MRC-5 cells, 10 µg/mL, 48 h)
CCCOC(=O)C1=C(C)C(=O)C(O)=C(C)C1=O [compound 30] | 62.5 µg/mL (≈ 262 µM) | > 250 µg/mL | > 250 µg/mL | > 250 µg/mL | 62.5 µg/mL (≈ 262 µM) | 15.6 µg/mL (≈ 65.5 µM) | – | – | – | – | – | – | – | – | – | –
CC1=C(O)C(=O)C(C)=C(C(=O)OCC(C)C)C1=O [compound 32] | 31.2 µg/mL (≈ 124 µM) | > 250 µg/mL | > 250 µg/mL | > 250 µg/mL | 31.2 µg/mL (≈ 124 µM) | 31.2 µg/mL (≈ 124 µM) | – | – | – | – | – | – | – | – | – | –
CN[C@H](CC(C)C)C(=O)N[C@H]1C(=O)N[C@@H](CC(N)=O)C(=O)N[C@H]2C(=O)N[C@H]3C(=O)N[C@H](C(=O)N[C@H](C(=O)O)c4cc(O)cc(O)c4-c4cc3ccc4O)[C@H](O)c3ccc(c(Cl)c3)Oc3cc2cc(c3O[C@@H]2O[C@H](CO)[C@@H](O)[C@H](O)[C@H]2O[C@H]2C[C@](C)(N)[C@H](O)[C@H](C)O2)Oc2ccc(cc2Cl)[C@H]1O [vancomycin, reference compound] | – | – | – | – | – | – | 200 | 0.5 µg/mL (≈ 0.345 µM) | 125 µg/mL (≈ 86.3 µM) | 125 µg/mL (≈ 86.3 µM) | 50 µg/mL (≈ 34.5 µM) | 1 µg/mL (≈ 0.69 µM) | 0.4 µg/mL (≈ 0.276 µM) | – | – | –
CCOC(=O)C1=C(C)C(=O)C(O)=C(C)C1=O [compound 29] | 62.5 µg/mL (≈ 279 µM) | > 250 µg/mL | > 250 µg/mL | > 250 µg/mL | 62.5 µg/mL (≈ 279 µM) | 15.6 µg/mL (≈ 69.6 µM) | – | – | – | – | – | – | – | – | – | –
CCCCCOC(=O)C1=C(C)C(=O)C(O)=C(C)C1=O [compound 33] | 15.6 µg/mL (≈ 58.6 µM) | > 250 µg/mL | > 250 µg/mL | > 250 µg/mL | 15.6 µg/mL (≈ 58.6 µM) | 15.6 µg/mL (≈ 58.6 µM) | – | – | – | – | – | – | – | two- to four-fold improved activity | comparatively lower in vivo toxicity | –
CC1=C(O)C(=O)C(C)=C(C(=O)OCCC(C)C)C1=O [compound 34] | 15.6 µg/mL (≈ 58.6 µM) | > 250 µg/mL | > 250 µg/mL | > 250 µg/mL | 15.6 µg/mL (≈ 58.6 µM) | 15.6 µg/mL (≈ 58.6 µM) | – | – | – | – | – | – | – | two- to four-fold improved activity | – | –
CCCCOC(=O)C1=C(C)C(=O)C(O)=C(C)C1=O [compound 31] | 31.2 µg/mL (≈ 124 µM) | > 250 µg/mL | > 250 µg/mL | > 250 µg/mL | 31.2 µg/mL (≈ 124 µM) | 15.6 µg/mL (≈ 61.8 µM) | – | – | – | – | – | – | – | – | – | –
COC(=O)C1=C(C)C(=O)C(O)=C(C)C1=O [compound 28] | 31.2 µg/mL (≈ 148 µM) | > 250 µg/mL | > 250 µg/mL | > 250 µg/mL | 62.5 µg/mL (≈ 297 µM) | 15.6 µg/mL (≈ 74.2 µM) | – | – | – | – | – | – | – | – | – | –
C=CCCOC(=O)C1=C(C)C(=O)C(O)=C(C)C1=O [compound 37] | 31.2 µg/mL (≈ 125 µM) | > 250 µg/mL | > 250 µg/mL | > 250 µg/mL | 62.5 µg/mL (≈ 250 µM) | 31.2 µg/mL (≈ 125 µM) | – | – | – | – | – | – | – | – | – | –
C#CCCCOC(=O)C1=C(C)C(=O)C(O)=C(C)C1=O [compound 40] | 62.5 µg/mL (≈ 238 µM) | > 250 µg/mL | > 250 µg/mL | 62.5 µg/mL (≈ 238 µM) | 31.2 µg/mL (≈ 119 µM) | 31.2 µg/mL (≈ 119 µM) | – | – | – | – | – | – | – | – | – | over 60%
C#CCCOC(=O)C1=C(C)C(=O)C(O)=C(C)C1=O [compound 38] | 31.2 µg/mL (≈ 126 µM) | > 250 µg/mL | > 250 µg/mL | > 250 µg/mL | 62.5 µg/mL (≈ 252 µM) | 31.2 µg/mL (≈ 126 µM) | – | – | – | – | – | – | – | – | – | –
CCCCCCOC(=O)C1=C(C)C(=O)C(O)=C(C)C1=O [compound 35] | 31.2 µg/mL (≈ 111 µM) | > 250 µg/mL | > 250 µg/mL | 62.5 µg/mL (≈ 223 µM) | 31.2 µg/mL (≈ 111 µM) | 7.81 µg/mL (≈ 27.9 µM) | – | – | – | – | – | – | – | – | – | –
